In patent US9738655B2, “Tetrahydroisoquinolines containing substituted azoles as factor XIa inhibitors” (BRISTOL-MYERS SQUIBB COMPANY, priority 2013, dated 2017):
Counter-ions that a name gives are not always drawn. Like-named read-outs stand apart in the source and are kept apart here.

Assays:
[1] = target: purified human Factor XIa (Homo sapiens (Human), UniProt P03951); test: Factor XIa enzyme inhibition assay (chromogenic substrate S-2366)
[2] = target: purified human plasma kallikrein (Homo sapiens (Human), UniProt P03952); test: Plasma kallikrein enzyme inhibition assay (chromogenic substrate S-2302); type: biochemical
Chain of purified human plasma kallikrein (P03952 391-638): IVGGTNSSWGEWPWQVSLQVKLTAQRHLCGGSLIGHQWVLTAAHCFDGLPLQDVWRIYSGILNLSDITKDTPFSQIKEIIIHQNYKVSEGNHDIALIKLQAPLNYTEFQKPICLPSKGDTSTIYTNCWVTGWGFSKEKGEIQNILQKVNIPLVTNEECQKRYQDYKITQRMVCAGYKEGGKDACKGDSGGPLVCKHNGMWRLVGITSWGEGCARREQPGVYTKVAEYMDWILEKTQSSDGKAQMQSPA
Chain of purified human plasma kallikrein (P03952 20-390 partner): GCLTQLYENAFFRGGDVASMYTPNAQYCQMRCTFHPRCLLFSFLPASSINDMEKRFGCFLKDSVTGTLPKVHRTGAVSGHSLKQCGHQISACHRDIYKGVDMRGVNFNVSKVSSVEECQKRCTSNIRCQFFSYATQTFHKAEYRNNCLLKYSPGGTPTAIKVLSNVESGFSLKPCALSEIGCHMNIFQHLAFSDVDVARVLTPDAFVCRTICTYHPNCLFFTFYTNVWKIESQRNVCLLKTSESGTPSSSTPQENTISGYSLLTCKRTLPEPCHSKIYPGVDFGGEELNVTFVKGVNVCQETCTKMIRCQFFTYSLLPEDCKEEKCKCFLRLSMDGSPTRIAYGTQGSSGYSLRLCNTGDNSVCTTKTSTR

[3] = read-out: Factor XIa Ki, measured at 25° C.
[4] = measured at 25° C. (no asterisk)
[5] = measured at 25° C. (no asterisk), TFA salt
[6] = read-out: Factor XIa Ki, measured at 25° C., TFA salt

Chain of purified human Factor XIa (P03951 388-625): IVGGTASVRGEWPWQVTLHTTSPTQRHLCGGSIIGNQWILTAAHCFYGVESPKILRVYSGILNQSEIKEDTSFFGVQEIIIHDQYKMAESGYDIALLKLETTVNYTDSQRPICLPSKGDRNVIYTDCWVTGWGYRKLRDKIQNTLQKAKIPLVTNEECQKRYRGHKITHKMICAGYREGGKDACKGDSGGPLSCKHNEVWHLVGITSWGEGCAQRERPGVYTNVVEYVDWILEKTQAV
Chain of purified human Factor XIa (P03951 19-387 partner): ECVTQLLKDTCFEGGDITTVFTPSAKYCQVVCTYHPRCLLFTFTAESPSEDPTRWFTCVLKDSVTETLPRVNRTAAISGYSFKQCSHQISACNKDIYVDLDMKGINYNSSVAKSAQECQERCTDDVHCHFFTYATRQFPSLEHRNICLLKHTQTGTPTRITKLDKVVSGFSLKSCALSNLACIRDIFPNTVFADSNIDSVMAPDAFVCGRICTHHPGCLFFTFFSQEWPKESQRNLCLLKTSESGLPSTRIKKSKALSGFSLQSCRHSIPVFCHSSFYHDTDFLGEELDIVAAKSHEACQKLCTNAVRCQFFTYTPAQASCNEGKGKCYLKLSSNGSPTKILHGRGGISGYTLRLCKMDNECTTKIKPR

Structure (SMILES) | Ki [1, 3] [µM] | Ki [2, 4] [µM] | Ki [1] [µM] | Ki ([2]; measured at 37° C. (*)) [µM] | also measured
CN(C)C(=O)C1CCN(c2cccc3c2CCN(C(=O)c2cnn(-c4cccc(Cl)c4F)c2)[C@@H]3C(=O)Nc2ccc(C(=O)O)cc2)CC1 (single isomer, unassigned) [Example 61, TFA salt] | < 0.005 | 0.00589 |  |  | 
CN(C)C(=O)C1CCN(c2cccc3c2CCN(C(=O)c2cn(-c4cccc(Cl)c4F)cn2)[C@H]3C(=O)Nc2ccc(C(=O)O)cc2)CC1 (single isomer, unassigned) [Example 62, TFA salt] | 0.0746 | 0.399 |  |  | 
CN(C)C(=O)C1CCN(c2cccc3c2CCN(C(=O)c2cn(-c4cccc(Cl)c4F)cn2)[C@@H]3C(=O)Nc2ccc(C(=O)O)cc2)CC1 (single isomer, unassigned) [Example 63, TFA salt] | < 0.005 | 0.00271 |  |  | 
O=C(O)c1ccc(NC(=O)C2c3cccc(N4CCC(N5CCCC5)CC4)c3CCN2C(=O)C2CC(c3cccc(Cl)c3)=NO2)cc1 (single isomer, unassigned) [Example 203, 4-(2-(3-(3-chlorophenyl)-4,5-dihydroisoxazole-5-carbonyl)-5-(4-(pyrrolidin-1-yl)piperidin-1-yl)-1,2,3,4-tetrahydroisoquinoline-1-carboxamido)benzoic acid, 2 TFA salt] |  | 0.00129 | < 0.005 |  | 
O=C(O)c1ccc(NC(=O)C2c3cccc(N4CCC(N5CCCC5)CC4)c3CCN2C(=O)C2CC(c3cccc(Cl)c3)=NO2)cc1 (single isomer, unassigned) [Example 204, 4-(2-(3-(3-chlorophenyl)-4,5-dihydroisoxazole-5-carbonyl)-5-(4-(pyrrolidin-1-yl)piperidin-1-yl)-1,2,3,4-tetrahydroisoquinoline-1-carboxamido)benzoic acid, 2 TFA salt] | < 0.005 | 0.011 |  |  | 
COC1CCN(c2cccc3c2CCN(C(=O)[C@H]2CC(c4cccc(Cl)c4F)=NO2)[C@@H]3C(=O)Nc2ccccc2F)CC1 (single isomer, unassigned) [Example 235, TFA salt] |  |  | 0.0232 | 0.478 | 
COC1CCN(c2cccc3c2CCN(C(=O)[C@H]2CC(c4cccc(Cl)c4F)=NO2)[C@H]3C(=O)Nc2ccccc2F)CC1 (single isomer, unassigned) [Example 236, TFA salt] |  |  | 0.454 | > 4.34 | 
COC1CCN(c2cccc3c2CCN(C(=O)[C@H]2CC(c4cccc(Cl)c4F)=NO2)[C@@H]3C(=O)Nc2cccc(F)c2)CC1 (single isomer, unassigned) [Example 237, TFA salt] |  |  | 0.0154 | 0.13 | 
COC1CCN(c2cccc3c2CCN(C(=O)[C@H]2CC(c4cccc(Cl)c4F)=NO2)[C@@H]3C(=O)Nc2cccnc2)CC1 (single isomer, unassigned) [Example 241, TFA salt] |  |  | 0.00878 | 0.0667 | 
COC1CCN(c2cccc3c2CCN(C(=O)[C@H]2CC(c4cccc(Cl)c4F)=NO2)[C@H]3C(=O)Nc2cccnc2)CC1 (single isomer, unassigned) [Example 242, TFA salt] |  |  | 0.188 | 1.23 | 
CN1CCN(c2cccc3c2CCN(C(=O)C2CC(c4cccc(Cl)c4F)=NO2)C3C(=O)Nc2ccc(C(=O)O)cc2)CC1=O (single isomer, unassigned) [Example 280, 4-(2-(3-(3-chloro-2-fluorophenyl)-4,5-dihydroisoxazole-5-carbonyl)-5-(4-methyl-3-oxopiperazin-1-yl)-1,2,3,4-tetrahydroisoquinoline-1-carboxamido)benzoic acid, TFA salt] |  |  |  |  | Ki [1, 6]: 0.0365 µM; Ki [2, 5]: 0.283 µM
CN1CCN(c2cccc3c2CCN(C(=O)C2CC(c4cccc(Cl)c4F)=NO2)C3C(=O)Nc2ccc(C(=O)O)cc2)CC1=O (single isomer, unassigned) [Example 281, 4-(2-(3-(3-chloro-2-fluorophenyl)-4,5-dihydroisoxazole-5-carbonyl)-5-(4-methyl-3-oxopiperazin-1-yl)-1,2,3,4-tetrahydroisoquinoline-1-carboxamido)benzoic acid, TFA] |  |  |  |  | Ki ([1]; read-out: Factor XIa Ki, measured at 25° C., TFA): 0.0128 µM; Ki ([2]; measured at 25° C. (no asterisk), TFA): 0.079 µM
CN1CCN(c2cccc3c2CCN(C(=O)C2CC(c4cccc(Cl)c4F)=NO2)C3C(=O)Nc2ccc(C(=O)O)cc2)CC1=O (single isomer, unassigned) [Example 282, 4-(2-(3-(3-chloro-2-fluorophenyl)-4,5-dihydroisoxazole-5-carbonyl)-5-(4-methyl-3-oxopiperazin-1-yl)-1,2,3,4-tetrahydroisoquinoline-1-carboxamido)benzoic acid, TFA salt] |  |  |  |  | Ki [1, 6]: < 0.005 µM; Ki [2, 5]: 0.00187 µM

Second part, led by results:

Ki [1, 3] [µM] | Ki [2, 4] [µM] | Ki [1] [µM] | Ki ([2]; measured at 37° C. (*)) [µM] | Structure (SMILES) | also measured
 | 0.0309 | < 0.005 |  | O=C(O)c1ccc(NC(=O)[C@@H]2c3cccc(N4CCC(N5CCCC5=O)CC4)c3CCN2C(=O)[C@H]2CC(c3cccc(Cl)c3F)=NO2)cc1 (single isomer, unassigned) [Example 207, TFA salt] | 
< 0.005 | 0.447 |  |  | O=C(O)c1ccc(NC(=O)C2c3cccc(N4CCC(N5CCCC5=O)CC4)c3CCN2C(=O)[C@H]2CC(c3cccc(Cl)c3F)=NO2)cc1 (single isomer, unassigned) [Example 208, TFA salt] | 
 | 0.00036 | < 0.005 |  | CN1CCN(c2cccc3c2CCN(C(=O)C2CC(c4cccc(Cl)c4)=NO2)C3C(=O)Nc2ccc(C(=O)O)cc2)CC1 (single isomer, unassigned) [Example 216, 4-(2-(3-(3-chlorophenyl)-4,5-dihydroisoxazole-5-carbonyl)-5-(4-methylpiperazin-1-yl)-1,2,3,4-tetrahydroisoquinoline-1-carboxamido)benzoic acid, 2 TFA salt] | 
 |  | 0.635 | > 4.34 | COC1CCN(c2cccc3c2CCN(C(=O)[C@H]2CC(c4cccc(Cl)c4F)=NO2)[C@H]3C(=O)Nc2cccc(F)c2)CC1 (single isomer, unassigned) [Example 238, TFA salt] | 
 |  | < 0.005 | 0.0376 | COC1CCN(c2cccc3c2CCN(C(=O)[C@H]2CC(c4cccc(Cl)c4F)=NO2)[C@@H]3C(=O)Nc2ccc(C(=O)O)cc2F)CC1 (single isomer, unassigned) [Example 243, TFA salt] | 
 |  | 0.0387 | 0.635 | COC1CCN(c2cccc3c2CCN(C(=O)[C@H]2CC(c4cccc(Cl)c4F)=NO2)[C@H]3C(=O)Nc2ccc(C(=O)O)cc2F)CC1 (single isomer, unassigned) [Example 244, TFA salt] | 
< 0.005 |  |  |  | CN(C)C(=O)C1CCN(c2cccc3c2CCN(C(=O)C2CC(c4cccc(Cl)c4F)=NO2)C3C(=O)Nc2ccc(C(=O)O)cc2)CC1 (single isomer, unassigned) [Example 278, 4-(2-(3-(3-chloro-2-fluorophenyl)-4,5-dihydroisoxazole-5-carbonyl)-5-(4-(dimethylcarbamoyl)piperidin-1-yl)-1,2,3,4-tetrahydroisoquinoline-1-carboxamido)benzoic acid, TFA salt] | Ki [2, 5]: 0.00198 µM
< 0.005 |  |  |  | CN(C)C(=O)C1CCN(c2cccc3c2CCN(C(=O)C2CC(c4cccc(Cl)c4F)=NO2)C3C(=O)Nc2ccc(C(=O)O)cc2)CC1 (single isomer, unassigned) [Example 279, 4-(2-(3-(3-chloro-2-fluoropheny)-4,5-dihydroisoxazole-5-carbonyl)-5-(4-(dimethylcarbamoyl)piperidin-1-yl)-1,2,3,4-tetrahydroisoquinoline-1-carboxamido)benzoic acid, TFA salt] | Ki [2, 5]: 0.0308 µM
